Experiments:
[1] = physicochemical stability of the new solid forms
Source text: Although there is good understanding of the physicochemistry of the cocrystal components, their elucidation a priori is almost impossible, as the interactions which determine the structure are relatively weak and the number of degrees of freedom for the optimization problem is immeasurable. For these reasons, the new solid forms disclosed herein are not obvious to a person skilled in the art. Further, the cocrystals and solvates of the present invention have shown physicochemical stability, allowing their use in pharmaceutical compositions. The present invention worked, among others, with the following coformers: aliphatic carboxylic acids, aromatic carboxylic acids, aromatic hydroxycarboxylic acids, aliphatic hydroxycarboxylic acids, aromatic heterocyclic amides, amino acid derivatives, polyphenols, alcohols such as xylitol and aromatic aminocarboxylic acids such as 3-aminobenzoic acid. A new solid form (NSF) which was stable with 3-hydroxybenzoic acid was found in the different assays of the present invention. The obtained NSF corresponds to a compound wherein the neutral coformer has a hydroxyl group and a carboxylic acid, and further contains a phenyl group as part of its structure.

[2] = cited from earlier work
[3] = neutral form, D+ isomer (6R,12R); cited from earlier work
[4] = in therapeutic concentrations; cited from earlier work

physicochemical stability of the solid form [1] | SMILES | eliminated in faeces, predominantly as metabolites ([2]; faeces) | eliminated in urine, predominantly as metabolites ([2]; urine) | solubility in water [3] | plasmatic tadalafil bonded to proteins [4] [%]
stable | CN1CC(=O)N2[C@H](c3ccc4c(c3)OCO4)c3[nH]c4ccccc4c3C[C@@H]2C1=O.O=C(O)c1cccc(O)c1 |  |  |  | 
 | CN1CC(=O)N2[C@H](c3ccc4c(c3)OCO4)c3[nH]c4ccccc4c3C[C@@H]2C1=O [tadalafil] | approximately 61 % of the dose | approximately 36 % of the dose | almost insoluble in water | 94

Source: patent US9278970B2, “Co-crystals of tadalafil and a hydroxy-substituted benzoic acid coformer as phosphodiesterase type 5 inhibitors” (Laboratorios Senosiain S.A. de C.V., priority 2012, dated 2016)
